{"source": "paper PMC6731142", "about": "(Cell, 2019)", "molecules": {"B1": {"name": "Biotin-GSGS-WaTx (N-terminal biotinylated Wasabi Receptor Toxin) (peptide)", "peptide": "GSGSASPQQAKYCYEQCNVNKVPFDQCYQMCSPLERS", "modifications": "biotin on the N-terminus; directed disulfide bonds C9-C27 and C13-C23 (WaTx numbering)"}}, "key": {"hTRPA1 [1]": {"biological_target": "T1, hTRPA1 (Homo sapiens, UniProt O75762)", "T1 sequence (O75762 whole entry)": "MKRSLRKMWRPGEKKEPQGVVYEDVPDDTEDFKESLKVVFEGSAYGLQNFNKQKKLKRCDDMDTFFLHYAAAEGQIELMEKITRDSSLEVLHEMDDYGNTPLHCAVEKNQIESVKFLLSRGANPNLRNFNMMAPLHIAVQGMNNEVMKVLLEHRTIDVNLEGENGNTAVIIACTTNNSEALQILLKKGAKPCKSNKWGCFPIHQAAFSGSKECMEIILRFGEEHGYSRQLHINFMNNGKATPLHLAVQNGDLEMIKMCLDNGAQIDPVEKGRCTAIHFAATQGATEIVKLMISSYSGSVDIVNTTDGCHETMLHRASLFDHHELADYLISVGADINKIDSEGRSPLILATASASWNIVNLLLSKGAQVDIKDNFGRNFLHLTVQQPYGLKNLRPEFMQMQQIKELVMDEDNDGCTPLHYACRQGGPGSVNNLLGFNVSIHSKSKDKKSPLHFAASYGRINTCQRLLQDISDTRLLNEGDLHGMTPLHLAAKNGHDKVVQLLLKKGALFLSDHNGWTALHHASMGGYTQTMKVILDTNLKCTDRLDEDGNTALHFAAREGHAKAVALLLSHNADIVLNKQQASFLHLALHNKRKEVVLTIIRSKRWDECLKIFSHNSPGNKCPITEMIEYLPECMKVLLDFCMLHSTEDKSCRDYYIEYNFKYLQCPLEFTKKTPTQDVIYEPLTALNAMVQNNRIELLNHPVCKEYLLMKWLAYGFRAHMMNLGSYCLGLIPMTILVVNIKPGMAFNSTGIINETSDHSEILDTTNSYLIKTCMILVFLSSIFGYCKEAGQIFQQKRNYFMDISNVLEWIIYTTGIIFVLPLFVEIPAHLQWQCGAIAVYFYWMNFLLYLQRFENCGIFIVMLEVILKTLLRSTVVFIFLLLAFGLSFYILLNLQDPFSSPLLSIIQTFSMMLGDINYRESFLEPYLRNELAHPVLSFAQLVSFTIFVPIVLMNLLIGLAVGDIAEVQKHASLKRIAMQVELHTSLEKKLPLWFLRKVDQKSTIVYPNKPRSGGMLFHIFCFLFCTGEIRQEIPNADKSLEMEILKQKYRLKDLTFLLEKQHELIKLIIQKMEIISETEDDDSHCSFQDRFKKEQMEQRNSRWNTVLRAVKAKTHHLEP", "type": "cell-based", "details": "human TRPA1-transfected HEK cells, whole-cell; mean ± SEM; p < 0.05 unpaired two-tailed t-test"}, "human TRPA1": {"tested_on": "human TRPA1", "type": "cell-based", "details": "WaTx 1 μM, whole-cell, n = 3–9 cells/construct"}, "[2]": {"tested_on": "trigeminal sensory neurons", "experiment": "Ca2+ imaging of cultured mouse trigeminal sensory neurons", "type": "cell-based"}, "hTRPA1 [3]": {"biological_target": "T1, hTRPA1", "type": "binding", "details": "wild-type hTRPA1-transfected HEK293 membranes"}, "rsTRPA1": {"tested_on": "rsTRPA1", "type": "binding, Texas rat snake (Elaphe obsoleta lindheimeri)", "details": "gain-of-function mutant A627P"}, "hTRPA1 [4]": {"biological_target": "T1, hTRPA1", "experiment": "Single-channel cell-attached and excised-patch recordings of TRPA1 in HEK cells", "type": "cell-based", "details": "for Effect on divalent over monovalent cation selectivity: excised patches, AITC 50 μM, n = 3–7 patches/condition; for Effect on divalent over monovalent cation selectivity / Duration of evoked channel openings / Average latency to first channel opening: WaTx 100 nM; for Duration of evoked channel openings / Average latency to first channel opening: inside-out patches, AITC 10 μM; for Duration of evoked channel openings: Vh = −40 mV, n = 6–8 patches/treatment; for Average latency to first channel opening: n = 13–14 patches/treatment"}, "[5]": {"tested_on": "cultured rat trigeminal neurons", "experiment": "CGRP release ELISA from cultured trigeminal neurons", "type": "cell-based", "details": "WaTx 10 μM"}, "mouse hindpaw [6]": {"tested_on": "mouse hindpaw", "experiment": "Thermal", "type": "in vivo", "details": "for Mechanical hypersensitivity in capsaicin-ablated animals: intrathecally capsaicin ablated mice, n = 6–8 mice/treatment; for Hypersensitivity to thermal and mechanical stimuli: wild-type mice, intraplantar injection"}, "[7]": {"tested_on": "rat snake TRPA1 (rsTRPA1)", "experiment": "Whole-cell patch-clamp recordings of rat snake TRPA1 in transfected HEK cells", "type": "cell-based, Texas rat snake (Elaphe obsoleta lindheimeri)"}, "mouse hindpaw [8]": {"tested_on": "mouse hindpaw", "details": "for Acute nocifensive behavior in capsaicin-ablated animals: intrathecally capsaicin ablated mice"}, "mouse hindpaw [9]": {"tested_on": "mouse hindpaw", "experiment": "Neurogenic inflammation: paw edema and Evan's Blue Dye extravasation", "type": "in vivo", "details": "intrathecally capsaicin ablated mice; AITC 0.75% v/v"}, "[10]": {"tested_on": "rat snake TRPA1 (rsTRPA1)", "details": "ref Banzawa et al., 2014; McNamara et al., 2007; cited from earlier work"}, "[11]": {"biological_target": "human TRPA1, full-length wild type (human, UniProt O75762 1-1119)", "sequence (O75762 whole entry)": "as above", "experiment": "BLI"}}, "note": "Bridge positions count the residues as written; N and C are the ends. Ends that are not written are not given here. * marks the point of attachment. Biotin = O=C1N[C@H]2[C@H](CS[C@H]2CCCCC(=O)*)N1", "data": [{"molecule": "WaTx (Biotin-GSGSASPQQAKYCYEQCNVNKVPFDQCYQMCSPLERS; disulfide 13-31, 17-27; not fully specified)", "values": [{"measurement": "τoff (reversal of membrane currents upon washout)", "setting": "hTRPA1 [1]", "value": "4.6 ± 1.2", "unit": "s"}, {"measurement": "Toxin sensitivity of hTRPA1 mutants P622A, M634L, T646P", "setting": "human TRPA1", "value": "abrogated toxin sensitivity"}, {"measurement": "Effect on neurons from TRPA1-deficient animals", "setting": "[2]; WaTx 5 μM, TRPA1−/− mouse trigeminal neuron cultures", "value": "no effect"}, {"measurement": "Selectivity of neuron excitation, wild-type mice", "setting": "[2]; saturating dose 5μM WaTx, AITC 50μM", "value": "excited only the cohort sensitive to a selective dose of AITC"}, {"measurement": "Binding of hTRPA1 membranes", "setting": "hTRPA1 [3]", "value": "Robust binding"}, {"measurement": "Binding of rsTRPA1 A627P membranes", "setting": "rsTRPA1", "value": "did display binding"}, {"measurement": "Activation of channels in cell-attached mode", "setting": "hTRPA1 [4]; cell-attached HEK cell patches, n = 12", "value": "WaTx-evoked responses in the on-cell patch configuration"}, {"measurement": "Activation of channels in excised patches", "setting": "hTRPA1 [4]; excised outside-out / inside-out patches, bath application", "value": "activity was observed in either configuration"}, {"measurement": "Effect on divalent over monovalent cation selectivity", "setting": "hTRPA1 [4]", "value": "largely abolished"}, {"measurement": "Duration of evoked channel openings", "setting": "hTRPA1 [4]", "value": "≤ 20", "unit": "ms"}, {"measurement": "Average latency to first channel opening", "setting": "hTRPA1 [4]", "value": "indistinguishable from that of basal, spontaneous events"}, {"measurement": "CGRP release, raised extracellular Ca2+", "setting": "[5]; 20mM extracellular Ca2+ (10-fold)", "value": "able to promote CGRP release"}, {"measurement": "Mechanical hypersensitivity in capsaicin-ablated animals", "setting": "mouse hindpaw [6]", "value": "failed to exhibit any signs of mechanical hypersensitivity"}, {"measurement": "Hypersensitivity to thermal and mechanical stimuli", "setting": "mouse hindpaw [6]", "value": "substantial and long-lasting hypersensitivity"}, {"measurement": "Toxin sensitivity of rsTRPA1 A627P", "setting": "[7]; WaTx 5 μM, whole-cell", "value": "sufficient to confer toxin sensitivity"}, {"measurement": "Sensitivity of rat snake TRPA1 to toxin", "setting": "[7]; whole-cell patch clamp, n = 4–12 HEK cells/condition", "value": "insensitive"}, {"measurement": "Nocifensive (pain-related) behavior", "setting": "mouse hindpaw [8]; 20 μL intraplantar to hindpaw, wild-type mice, scored 20 min", "value": "vigorous, dose-dependent nocifensive (pain-related) behavior"}, {"measurement": "Nocifensive and c-Fos responses in TRPA1-deficient mice", "setting": "mouse hindpaw [8]; TRPA1−/− mice", "value": "not observed"}, {"measurement": "c-Fos immunoreactivity in superficial laminae of spinal cord dorsal horn", "setting": "mouse hindpaw [8]; after hindpaw injection, wild-type mice, n = 22–39 sections/group", "value": "induction of c-Fos immunoreactivity"}, {"measurement": "Acute nocifensive behavior in capsaicin-ablated animals", "setting": "mouse hindpaw [8]", "value": "lacked acute nocifensive behavior"}]}, {"molecule": "C=CCN=C=S", "note": "[AITC, allyl isothiocyanate, reference compound]", "values": [{"measurement": "τoff (reversal of membrane currents upon washout)", "setting": "hTRPA1 [1]", "value": "27 ± 5", "unit": "s"}, {"measurement": "Effect on divalent over monovalent cation selectivity", "setting": "hTRPA1 [4]", "value": "small but significant increase in divalent cation selectivity"}, {"measurement": "Duration of evoked channel openings", "setting": "hTRPA1 [4]", "value": "≤ 5", "unit": "ms"}, {"measurement": "Average latency to first channel opening", "setting": "hTRPA1 [4]", "value": "dramatically shortened"}, {"measurement": "Paw swelling in capsaicin-ablated animals", "setting": "mouse hindpaw [9]", "value": "produced swelling"}, {"measurement": "CGRP release, physiological extracellular Ca2+", "setting": "[5]; 2mM extracellular Ca2+, AITC 100 μM, 5 min at RT", "value": "promoted robust CGRP release"}, {"measurement": "Mechanical hypersensitivity in capsaicin-ablated animals", "setting": "mouse hindpaw [6]", "value": "developed mechanical hypersensitivity (albeit with a delayed onset)"}, {"measurement": "Hypersensitivity to thermal and mechanical stimuli", "setting": "mouse hindpaw [6]", "value": "substantial and long-lasting hypersensitivity"}, {"measurement": "Acute nocifensive behavior in capsaicin-ablated animals", "setting": "mouse hindpaw [8]", "value": "not acute nocifensive behavior"}]}, {"molecule": "CC(C)c1ccc(NC(=O)Cn2cnc3c2c(=O)n(C)c(=O)n3C)cc1", "note": "[HC 030031]", "values": [{"measurement": "Inhibitor effectiveness against rsTRPA1", "setting": "[10]", "value": "effective"}]}, {"molecule": "CCC(=N\\O)/C(C)=C/c1ccc(F)cc1", "note": "[A 967079]", "values": [{"measurement": "Inhibitor effectiveness against rsTRPA1", "setting": "[10]", "value": "ineffective"}]}, {"molecule": "B1", "values": [{"measurement": "Kd", "setting": "[11]", "value": 0.33, "unit": "pM"}, {"measurement": "koff", "setting": "[11]", "value": "7.13e-06", "unit": "s⁻¹"}]}]}
